According to patent US20240041795A1, “Cyclic Ketone Compounds and Applications Thereof” (priority 2021, published 2024):

Columns and labels:
[1] = tested on: Male ICR mice; assay: Antagonism of test compounds against general anesthesia induced by general anesthetics (total anesthesia time, loss to recovery of righting reflex); type: in vivo
Method: The preparation method: A suitable amount of the compound to be tested was weighed, to which was added a suitable amount of medium and long chain fat emulsion injection with a pipette, and thus a 50 mmol/L solution of the test compound was prepared. After filtering with a 0.22 μm microporous membrane, the solution was immediately used.
Male ICR mice weighing 25 g±1 g were randomly divided into 8 groups, with 8 mice in each group. […] After maintaining the disappearance of the mouse righting reflex for 30 seconds, the solution of each test compound (50 mg/kg, using medium and long chain fat emulsion injection as solvent) or equal volume of medium and long chain fat emulsion injection was respectively injected, and the total anesthesia time of the mice was observed and recorded. Among them, the total anesthesia time refers to the time from the disappearance of the mouse righting reflex to the recovery of the mouse righting reflex.

[2] = tested on: male SD rats; assay: Antagonism of compounds against general anesthesia maintained by continuous infusion of propofol (anesthesia recovery/awakening time); type: in vivo; details: for The average of awakening time: SD rats
Method: The preparation method was the same as that of Example 1.
24 male SD rats with a body weight range of 250-300 g were randomly divided into 4 groups, with 6 rats in each group. Continuous anesthesia induction was performed using propofol (22.11 mg/kg, 1.5×EDO, and then maintained at a rate of 1 mg/(kg min) for 30 min. After drug withdrawal, compound 85 at doses of 10 mg/kg, 20 mg/kg, and 50 mg/kg, as well as 50 mg/kg of the test compound solutions (using medium and long chain fat emulsion injection as solvent) or equal volume of medium and long chain fat emulsion injection was immediately injected, respectively, and the anesthesia recovery time of the […] after stopping the medication was observed and recorded. Among them, the anesthesia recovery time refers to the time from the cessation of propofol infusion to the recovery of the righting reflex in mice.

[3] = Propofol 22.11 mg/kg (1.5×ED50) i.v. tail vein induction, test compound 50 mg/kg in fat emulsion injected after 30 s loss of righting reflex
[4] = Remimazolam 57.34 mg/kg (1.5×ED50) i.v. tail vein induction, test compound 50 mg/kg in fat emulsion injected after 30 s loss of righting reflex
[5] = test drug 50 mg/kg after withdrawal of propofol infusion (1 mg/(kg min) for 30 min)
[6] = Etomidate 4.48 mg/kg (2×ED50) i.v. tail vein induction, test compound 50 mg/kg in fat emulsion injected after 30 s loss of righting reflex
[7] = Ketamine induction (dose not given), test compound 50 mg/kg in fat emulsion

CC1CC2CC(=O)C1(C)C2(C)C (stereo not drawn) [Compound 661]
The average of total anesthesia time [1, 3]: 2.89 ± 0.64 min | The average of total anesthesia time [1, 4]: 0.55 ± 0.76 min | The average of awakening time [2, 5]: 2.39 ± 0.75 min

CC12CCC(CC(=O)O)(CC1=O)C2(C)C (stereo not drawn) [Compound 572]
The average of total anesthesia time [1, 4]: 0.85 ± 0.37 min

CC12CCC(C(I)C1=O)C2(C)C (stereo not drawn) [Compound 87]
The average of total anesthesia time [1, 6]: 1.56 ± 0.45 min | The average of total anesthesia time [1, 4]: 0.84 ± 0.78 min

CC1C(=O)CC2(C(C)C)CC12 (stereo not drawn) [Compound 580]
The average of total anesthesia time [1, 6]: 1.36 ± 0.84 min | The average of total anesthesia time [1, 3]: 3.12 ± 0.12 min | The average of total anesthesia time [1, 4]: 0.69 ± 0.25 min | The average of awakening time [2, 5]: 2.76 ± 0.20 min

CC12CCC(F)(CC1=O)C2(C)C (stereo not drawn) [Compound 565]
The average of total anesthesia time [1, 6]: 0.87 ± 0.93 min | The average of total anesthesia time [1, 7]: 3.46 ± 0.15 min | The average of total anesthesia time [1, 3]: 2.40 ± 0.89 min | The average of awakening time [2, 5]: 2.58 ± 0.56 min

CC1(C)C2CCC1(CBr)C(=O)C2 (stereo not drawn) [Compound 270]
The average of total anesthesia time [1, 6]: 2.50 ± 0.99 min | The average of total anesthesia time [1, 3]: 2.49 ± 0.15 min | The average of total anesthesia time [1, 4]: 1.01 ± 0.05 min

CC1(C)C2CC(=O)C1(C)C(Br)C2 (stereo not drawn) [Compound 633]
The average of total anesthesia time [1, 6]: 0.96 ± 0.92 min | The average of total anesthesia time [1, 7]: 3.35 ± 0.90 min | The average of total anesthesia time [1, 3]: 2.04 ± 0.63 min | The average of awakening time [2, 5]: 2.64 ± 0.19 min

CC1CCC(C(C)C)CC1=O (stereo not drawn) [Compound 582]
The average of total anesthesia time [1, 6]: 1.27 ± 0.83 min | The average of total anesthesia time [1, 3]: 1.39 ± 0.08 min | The average of total anesthesia time [1, 4]: 1.49 ± 0.21 min | The average of awakening time [2, 5]: 0.96 ± 0.23 min

CC1(CBr)C2CCC1(CBr)C(=O)C2Br (stereo not drawn) [Compound 70]
The average of total anesthesia time [1, 7]: 3.49 ± 0.40 min

CC(=O)OC1CC2(C)C(=O)CC1C2(C)C (stereo not drawn) [Compound 626]
The average of total anesthesia time [1, 6]: 2.05 ± 0.54 min

CC12CC(Cl)C(CC1=O)C2(C)C (stereo not drawn) [Compound 610]
The average of total anesthesia time [1, 4]: 1.32 ± 0.06 min | The average of awakening time [2, 5]: 2.72 ± 0.36 min

CC1C(=O)C2(C)CCC1(C)C2 (stereo not drawn) [Compound 581]
The average of total anesthesia time [1, 6]: 1.07 ± 0.32 min | The average of total anesthesia time [1, 3]: 2.22 ± 0.27 min | The average of total anesthesia time [1, 4]: 1.32 ± 0.31 min | The average of awakening time [2, 5]: 4.66 ± 0.60 min

CC12CCC(C(C(=O)O)C1=O)C2(C)C (stereo not drawn) [Compound 67]
The average of total anesthesia time [1, 3]: 2.14 ± 0.32 min | The average of awakening time [2, 5]: 3.04 ± 0.18 min

CC12CCC(O)(CC1=O)C2(C)C (stereo not drawn) [Compound 563]
The average of total anesthesia time [1, 3]: 2.62 ± 0.18 min

CC12CCC(C(=O)C1=O)C2(C)C (stereo not drawn) [Compound 104]
The average of total anesthesia time [1, 7]: 2.67 ± 0.30 min

CC12CCC(CC1=O)C2(C)C(Cl)Br (stereo not drawn) [Compound 262]
The average of total anesthesia time [1, 7]: 3.92 ± 0.83 min

CC12CCC(C(Br)C1=O)C2(C)C (stereo not drawn) [Compound 86]
The average of total anesthesia time [1, 3]: 1.56 ± 0.21 min | The average of total anesthesia time [1, 4]: 1.49 ± 0.62 min

CC12CCC(C(Cl)C1=O)C2(C)C (stereo not drawn) [Compound 168]
The average of total anesthesia time [1, 4]: 0.86 ± 0.42 min

CC1(C)[C@H]2CC[C@]1(C)C(=O)C2 [Compound 171]
The average of total anesthesia time [1, 6]: 1.97 ± 0.07 min | The average of total anesthesia time [1, 7]: 3.64 ± 0.89 min | The average of total anesthesia time [1, 3]: 0.42 ± 0.32 min | The average of total anesthesia time [1, 4]: 0.73 ± 0.57 min | The average of awakening time [2, 5]: 0.34 ± 0.89 min

CC1(Br)C(=O)C2(C)CCC1C2(C)C (stereo not drawn) [Compound 120]
The average of total anesthesia time [1, 7]: 3.72 ± 0.24 min

CC1(C)C2CC(=O)C1(C)C(Cl)C2 (stereo not drawn) [Compound 631]
The average of total anesthesia time [1, 3]: 3.30 ± 0.79 min | The average of total anesthesia time [1, 4]: 0.70 ± 0.32 min | The average of awakening time [2, 5]: 2.85 ± 0.58 min

CC12CCC(CC1=O)C2(C)CO (stereo not drawn) [Compound 157]
The average of total anesthesia time [1, 6]: 2.08 ± 0.32 min | The average of total anesthesia time [1, 3]: 2.52 ± 0.21 min

CC1(C)C2CC(=O)C1(C)C(Cl)(Br)C2 (stereo not drawn) [Compound 643]
The average of total anesthesia time [1, 6]: 2.80 ± 0.67 min | The average of awakening time [2, 5]: 1.01 ± 0.29 min

CC12CC(O)C(CC1=O)C2(C)C (stereo not drawn) [Compound 616]
The average of total anesthesia time [1, 6]: 1.15 ± 0.83 min | The average of total anesthesia time [1, 3]: 2.70 ± 0.63 min | The average of total anesthesia time [1, 4]: 0.94 ± 0.30 min

CC12CCC(CC1=O)C2(C)C (stereo not drawn) [Compound 85]
The average of total anesthesia time [1, 6]: 0.46 ± 0.25 min | The average of total anesthesia time [1, 7]: 3.01 ± 0.45 min | The average of total anesthesia time [1, 3]: 0.47 ± 0.21 min | The average of total anesthesia time [1, 4]: 0.45 ± 0.21 min | Reversal of the anesthesia maintenance effect of continuous infusion of propofol ([2]; continuous propofol infusion, 10, 20, 50 mg/kg): could dose-dependently shorten the anesthesia recovery time of rats | The average of awakening time ([2]; test drug 10 mg/kg after withdrawal of propofol infusion (1 mg/(kg min) for 30 min)): 4.11 ± 1.22 min | The average of awakening time ([2]; test drug 20 mg/kg after withdrawal of propofol infusion (1 mg/(kg min) for 30 min)): 3.68 ± 1.12 min | The average of awakening time [2, 5]: 0.36 ± 0.98 min

[2H]C1C(=O)C2(C)CCC1C2(C)C (stereo not drawn) [Compound 664]
The average of total anesthesia time [1, 7]: 3.20 ± 0.77 min

CC12CCC(CC1=O)C2(C)CO (stereo not drawn) [Compound 140]
The average of total anesthesia time [1, 6]: 2.05 ± 0.33 min | The average of total anesthesia time [1, 3]: 4.13 ± 0.20 min | The average of total anesthesia time [1, 4]: 1.16 ± 0.92 min

CSC1C(=O)C2(C)CCC1C2(C)C (stereo not drawn) [Compound 68]
The average of total anesthesia time [1, 6]: 2.11 ± 0.54 min | The average of total anesthesia time [1, 3]: 4.05 ± 0.15 min

CC12CCC(CC1=O)C2(C)CBr (stereo not drawn) [Compound 150]
The average of total anesthesia time [1, 3]: 1.26 ± 0.17 min

CC1(C)C2CCC1(CO)C(=O)C2 (stereo not drawn) [Compound 273]
The average of total anesthesia time [1, 3]: 1.43 ± 0.43 min

CC12CC(Br)C(CC1=O)C2(C)C (stereo not drawn) [Compound 608]
The average of total anesthesia time [1, 3]: 4.08 ± 0.34 min

CC12CCC(CC1=O)C2(C)CC(=O)O (stereo not drawn) [Compound 139]
The average of total anesthesia time [1, 6]: 2.64 ± 0.89 min | The average of total anesthesia time [1, 4]: 1.29 ± 0.63 min

CC1(C)C2CCC1(CCl)C(=O)C2 (stereo not drawn) [Compound 269]
The average of total anesthesia time [1, 3]: 2.15 ± 0.98 min | The average of total anesthesia time [1, 4]: 1.39 ± 0.45 min | The average of awakening time [2, 5]: 3.29 ± 0.81 min

CC12CCC(Br)(CC1=O)C2(C)C (stereo not drawn) [Compound 561]
The average of total anesthesia time [1, 6]: 2.03 ± 0.61 min

CC12CCC(CC1=O)C2(C)CBr (stereo not drawn) [Compound 130]
The average of total anesthesia time [1, 3]: 1.79 ± 0.09 min | The average of awakening time [2, 5]: 3.41 ± 0.52 min

CC12CCC(CC1=O)C2(C)CI (stereo not drawn) [Compound 135]
The average of total anesthesia time [1, 6]: 1.72 ± 0.50 min

CCC1(C)C2CCC1(C)C(=O)C2 (stereo not drawn) [Compound 163]
The average of total anesthesia time [1, 6]: 2.17 ± 0.60 min | The average of total anesthesia time [1, 3]: 1.51 ± 0.51 min | The average of total anesthesia time [1, 4]: 0.77 ± 0.02 min | The average of awakening time [2, 5]: 1.33 ± 0.79 min
